# Laboratory results taken from patent publication US20030187267A1, “Novel 1,2,3,4-tetrahydroisoquinoline, their preparation method and their use as fungicides” (priority 2000, published 2003).
# Test system: Candida Albicans 44858
# Assay: Antifungal activity in mice infected intravenously with Candida Albicans 44858 (dead mice counted)
# Assay type: in vivo
# Settings: female mice, 106 CFU per mouse into the tail vein
# Description: Antifungal activity of the product of Example 1 or product P.
# Female mice were used weighing 18 to 22 g. A quantity of Candida Albicans 44858 at a rate of 10^6 CFU per mouse (CFU: colony forming unit) is administered into the vein of the tail. The mice are separated into 5 batches of 5 mice and they are treated as follows:
# group 1: the mice are treated with product P 25 mg/kg by oral route
# group 2: the mice are treated with product P by intraperitoneal route at a rate of 25 mg/kg
# group 3: the mice are treated with fluconazole (25 mg/kg by oral route).
# group 4: the mice are treated with fluconazole (25 mg/kg by intraperitoneal route).
# group 5: the mice receive no antifungal treatment.
# For a period of 22 days, the dead mice are counted.
compound,measurement,setting,value
"CCC(C)n1ncn(-c2ccc(/C=C/CN3CCc4cc(OC[C@H]5CO[C@](Cn6ccnc6)(c6ccc(Cl)cc6Cl)O5)ccc4C3)cc2)c1=O (relative stereo) [Example 1, 2,4-dihydro-4-[4-[3-[6-[[(cis)-2-(2,4-dichlorophenyl)-2-(1H-imidazol-1-ylmethyl)-1,3-dioxolan-4-yl]-methoxy]-1,2,3,4-tetrahydro-2-isoquinolinyl]-1(E)-propenyl]-phenyl]-2-(1-methylpropyl)-3H-1,2,4-triazol-3-one.]",Antifungal activity (dead mice counted for a period of 22 days),25 mg/kg by intraperitoneal route 1 hour after infection,excellent activity
same,Antifungal activity (dead mice counted for a period of 22 days),25 mg/kg by oral route 1 hour after infection,excellent activity
